Each block holds one molecule with its values, some of them ahead of it.
What was measured:
Test in all cases: RelE cleavage translation initiation assay (PAGE)
[1] = tested on: Vvu add U61C (RNA, riboswitch) GCUUCAUAUAAUCCUAAUGAUAUGGUUUGGGAGUUUCUACCAAGAGCCUUAAACUCUUGACUAUGAAGUCUGUCGCUUUAUCCGAAAUUUUAUAAAGAGAAGACUCAUGUAGAAUUACUUUGACCUGCCG; conditions: 30 mM K+ (KCl), 7 mM Mg2+, 70 mM NH4Cl, 50 mM HEPES-KOH pH 7.5, 37 °C, 70S ribosomes, IFs
[2] = tested on: Vvu add (WT) (RNA, riboswitch) GCUUCAUAUAAUCCUAAUGAUAUGGUUUGGGAGUUUCUACCAAGAGCCUUAAACUCUUGAUUAUGAAGUCUGUCGCUUUAUCCGAAAUUUUAUAAAGAGAAGACUCAUGUAGAAUUACUUUGACCUGCCG; conditions: 30 mM K+ (KCl), 7 mM Mg2+, 70 mM NH4Cl; 50 mM HEPES-KOH pH 7.5, 37 °C, 70S ribosomes, IFs; apparent
[3] = tested on: Pae Gdm WT (RNA, riboswitch) GGUUUCAGCCGGAAGCGGGACGACCCGUUUUCCCUCUUUCAUUGCGCGGGGACGACCCUGCAGAGAGGCUGAAAAUGUAGUGGAUCUAUCUCUUGCUCGUA; conditions: 30 mM K+ (KCl), 7 mM Mg2+, 70 mM NH4Cl, 50 mM HEPES-KOH pH 7.5, 37 °C, 70S ribosomes, IFs
[4] = tested on: Pae Gdm OFF (RNA, riboswitch) GGUUUCAGCCGGAAGCGGGAAAACCCGUUUUCCCUCUUUCAUUGCGCGGGGACGACCCUGCAGAGAGGCUGAAAAUGUAGUGGAUCUAUCUCUUGCUCGUA; conditions: 30 mM K+ (KCl), 7 mM Mg2+, 70 mM NH4Cl; 50 mM HEPES-KOH pH 7.5, 37 °C, 70S ribosomes, IFs; no response up to 25 mM guanidine

binding ([1]; no response up to 500 μM adenine): no | K1/2 [2]: 1.4 ± 0.7 µM
Structure (SMILES): Nc1ncnc2[nH]cnc12

K1/2 ([3]; apparent, Hill 1.5 ± 0.2): 2.2 ± 0.2 mM | binding [4]: no
Structure (SMILES): N=C(N)N

K1/2 ([1]; apparent): 87 ± 3 nM
Structure (SMILES): Nc1nc2[nH]cnc2c(=O)[nH]1

binding ([3]; no modulation at 50 mM urea): no
Structure (SMILES): NC(N)=O

— article PMC9561414 (2022)
